Measured values published in patent publication US4994376A, “Detection of bacteroides gingivalis” (priority 1987, dated 1991).
Several values for one entry are separate records, joined by “and”; a condition that tells them apart may be missing. Equal entries are not always repeated. Where two headings read alike, the source gives them in different places. Numbered stars: 1 amine (or outer) side, 2 acyl side, 3 side chain; on linkers, the order of the positions; unused ones are H or OH. Peptide text beside a SMILES is read from it. CO = O=C([*:1])[*:2]

How the values were obtained:
[1] = test system: B. gingivalis N-CBz-Gly-Gly-Arg peptidase; assay: Effect of inhibitors and enhancers on B. gingivalis peptidase activity; assay type: biochemical, Bacteroides gingivalis; conditions: for Inhibition of B. gingivalis enzyme activity by metals: high concentrations
B. levii = assay type: biochemical
Experimental: (§1) The enzyme activity was measured by the chromogenic properties of N-CBz-glycyl-glycyl-L-arginine-β-naphthylamide which upon hydrolysis gives a visible color. The aminopeptidase activities listed in the table reflect the nanomoles of β-naphthylamine liberated after 60 minutes under the conditions described below.
(§2) After mixing, the solution is incubated for 1 hour at 37° C. and then 0.4 ml of a solution of stabilized diazonium salt, Fast Garnet GBC (0.5 mg/ml) in a 1M acetic acid buffer (pH 4.2), containing 10% Tween 20 was added to the mixture. After standing for 15 minutes at room temperature, the color reaction can be read manually by comparison with standard solutions or the absorbancy can be determined using a spectrophotometer at 525 nm. The reaction mixture without enzyme solution is used as a control.

B. mel. ss. intermedius = assay type: biochemical
Experimental: as §1, §2

C. ochracea = assay type: biochemical
Experimental: as §1, §2

[2] = test system: Capnocytophaga gingivalis; assay type: biochemical
Experimental: as §1, §2

Capnocytophaga sp. = assay type: biochemical
Experimental: as §1, §2

B. corporis = assay: Aminopeptidase activity on β-naphthylamide substrates; assay type: biochemical
Experimental: as §1, §2

B. denticola = assay: as above; assay type: biochemical
Experimental: as §1, §2

B. intermedius = assay: as above; assay type: biochemical
Experimental: as §1, §2

B. melaninogenicus = assay: as above; assay type: biochemical
Experimental: as §1, §2

C. sputigena = assay: as above; assay type: biochemical
Experimental: as §1, §2

"Anaerobic vibrio" = assay type: biochemical
Experimental: as §1, §2
(§3) The enzyme activity and the aminopeptidase activities were determined in the manner described above in regard to Table I.

A. seminis = assay type: biochemical
Experimental: as §1, §2, §3

A. viscosus = assay type: biochemical
Experimental: as §1, §2, §3

Actinomyces israeli = assay type: biochemical
Experimental: as §1, §2, §3

Campylobacter sputorum = assay type: biochemical
Experimental: as §1, §2, §3

Eikenella corrodens = assay type: biochemical
Experimental: as §1, §2, §3

Fusobacterium nucleatum = assay type: biochemical
Experimental: as §1, §2, §3

S. mutans = assay type: biochemical
Experimental: as §1, §2, §3

S. sanguis = assay type: biochemical
Experimental: as §1, §2, §3

Veillonella sp. = assay type: biochemical
Experimental: as §1, §2, §3

A. equuli = assay: Aminopeptidase activity on β-naphthylamide substrates; assay type: biochemical
Experimental: as §1, §2, §3

A. suis = assay: as above; assay type: biochemical
Experimental: as §1, §2, §3

F. periodonticum = assay: as above; assay type: biochemical
Experimental: as §1, §2, §3

L. fermentum = assay: as above; assay type: biochemical
Experimental: as §1, §2, §3

S. salivarius = assay: as above; assay type: biochemical
Experimental: as §1, §2, §3

Veillonella alcalesens = assay: as above; assay type: biochemical
Experimental: as §1, §2, §3

V. parvula = assay type: biochemical
Experimental: as §1, §2, §3

Haemophilus aphrophilus = assay: Aminopeptidase activity on β-naphthylamide substrates; assay type: biochemical
Experimental: as §1, §2, §3

Lactobacillus casei = assay: as above; assay type: biochemical
Experimental: as §1, §2, §3

Bacteroides gingivalis = assay type: biochemical
Experimental: as §1, §2

[3] = strain D31A-24, β-naphthylamine liberated after 60 minutes, 37° C.
[4] = strain ATCC 33547, β-naphthylamine liberated after 60 minutes, 37° C.
[5] = strain ATCC 33185, β-naphthylamine liberated after 60 minutes, 37° C.
[6] = strain ATCC 25611, β-naphthylamine liberated after 60 minutes, 37° C.
[7] = strain ATCC 25845, β-naphthylamine liberated after 60 minutes, 37° C.
[8] = strain ATCC 33123, β-naphthylamine liberated after 60 minutes, 37° C.
[9] = strain ATCC 19392, β-naphthylamine liberated after 60 minutes, 37° C.
[10] = strain ATCC 15557, β-naphthylamine liberated after 60 minutes, 37° C.
[11] = strain EK1-15, β-naphthylamine liberated after 60 minutes, 37° C.
[12] = strain ATCC 13252, β-naphthylamine liberated after 60 minutes, 37° C.
[13] = strain ATCC 19415, β-naphthylamine liberated after 60 minutes, 37° C.
[14] = strain NCTC 5908, β-naphthylamine liberated after 60 minutes, 37° C.
[15] = strain ATCC 11581, β-naphthylamine liberated after 60 minutes, 37° C.
[16] = strain ATCC 7469, β-naphthylamine liberated after 60 minutes, 37° C.
[17] = strain ATCC 11578, β-naphthylamine liberated after 60 minutes, 37° C.
[18] = strain ATCC 11582, β-naphthylamine liberated after 60 minutes, 37° C.
[19] = strain ATCC 9759, β-naphthylamine liberated after 60 minutes, 37° C.
[20] = strain ATCC 25975, β-naphthylamine liberated after 60 minutes, 37° C.
[21] = strain ATCC 11748, β-naphthylamine liberated after 60 minutes, 37° C.

Compound: mercury
- Sensitivity of B. gingivalis enzyme activity to heavy metal ions [1]: sensitive
- Inhibition of B. gingivalis enzyme activity by metals [1]: inhibited

Compound: O=S(=O)(F)Cc1ccccc1 [phenylmethylsulfonylfluoride]
- Inhibition of B. gingivalis N-CBz-glycyl-glycyl-arginylpeptidase enzyme activity [1]: inhibited

Compound: CC(C)[C@H](NC(=O)[C@H](CCCNC(=N)N)NC(=O)N[C@@H](Cc1ccccc1)C(=O)O)C(=O)N[C@H](C=O)CCCNC(=N)N [antipain] ({Phe-CO}-Arg-Val-Arg-aldehyde)
- Inhibition of B. gingivalis N-CBz-glycyl-glycyl-arginylpeptidase enzyme activity [1]: inhibited

Compound: NCC(=O)N1CCC[C@H]1C(=O)O [Gly-Pro, Glycyl-proline] (H-Gly-Pro-OH)
- Aminopeptidase activity (B. levii): 22 and 17
- Aminopeptidase activity (B. mel. ss. intermedius): 15 and 22 and 27
- Aminopeptidase activity (C. ochracea): 11
- Aminopeptidase activity [2]: 19
- Aminopeptidase activity (Capnocytophaga sp.): 2
- Aminopeptidase activity (B. corporis): 54
- Aminopeptidase activity (B. denticola): 17
- Aminopeptidase activity (B. intermedius): 10
- Aminopeptidase activity (B. melaninogenicus): 26
- Aminopeptidase activity (C. sputigena): 16
- Aminopeptidase activity ("Anaerobic vibrio"): 0
- Aminopeptidase activity (A. seminis): 0
- Aminopeptidase activity (A. viscosus): 0
- Aminopeptidase activity (Actinomyces israeli): 0
- Aminopeptidase activity (Campylobacter sputorum): 1
- Aminopeptidase activity (Eikenella corrodens): 0
- Aminopeptidase activity (Fusobacterium nucleatum): 0
- Aminopeptidase activity (Fusobacterium nucleatum; [3]): 0 nmol
- Aminopeptidase activity (S. mutans): 22
- Aminopeptidase activity (S. sanguis): 75 and 109
- Aminopeptidase activity (Veillonella sp.): 0
- Aminopeptidase activity (A. equuli): 0
- Aminopeptidase activity (A. suis): 0
- Aminopeptidase activity (F. periodonticum): 1
- Aminopeptidase activity (L. fermentum): 5
- Aminopeptidase activity (S. salivarius): 105 and 90
- Aminopeptidase activity (Veillonella alcalesens): 0

Compound: [Co] [cobalt]
- Inhibition of B. gingivalis enzyme activity by metals [1]: inhibited

Compound: N=C(N)NCCC[C@H](NC(=O)CN)C(=O)O [Gly-Arg, Glycyl-arginine] (H-Gly-Arg-OH)
- Aminopeptidase activity (B. mel. ss. intermedius): 13 and 9
- Aminopeptidase activity (C. ochracea): 11
- Aminopeptidase activity [2]: 6
- Aminopeptidase activity (Capnocytophaga sp.): 20
- Aminopeptidase activity (B. corporis; [4]): 0 nmol
- Aminopeptidase activity (B. denticola; [5]): 4 nmol
- Aminopeptidase activity (B. intermedius; [6]): 22 nmol
- Aminopeptidase activity (B. melaninogenicus; [7]): 4 nmol
- Aminopeptidase activity (C. sputigena; [8]): 8 nmol
- Aminopeptidase activity ("Anaerobic vibrio"): 0
- Aminopeptidase activity (A. seminis): 0
- Aminopeptidase activity (Actinomyces israeli): 0
- Aminopeptidase activity (Campylobacter sputorum): 0
- Aminopeptidase activity (Eikenella corrodens): 2
- Aminopeptidase activity (Fusobacterium nucleatum): 0
- Aminopeptidase activity (Fusobacterium nucleatum; [3]): 1 nmol
- Aminopeptidase activity (S. mutans): 0
- Aminopeptidase activity (S. sanguis): 3
- Aminopeptidase activity (V. parvula): 0
- Aminopeptidase activity (Veillonella sp.): 0
- Aminopeptidase activity (A. equuli; [9]): 0 nmol
- Aminopeptidase activity (A. suis; [10]): 0 nmol
- Aminopeptidase activity (F. periodonticum; [11]): 0 nmol
- Aminopeptidase activity (Haemophilus aphrophilus; [12]): 0 nmol
- Aminopeptidase activity (Haemophilus aphrophilus; [13]): 0 nmol
- Aminopeptidase activity (Haemophilus aphrophilus; [14]): 0 nmol
- Aminopeptidase activity (L. fermentum; [15]): 0 nmol
- Aminopeptidase activity (Lactobacillus casei; [16]): 0 nmol
- Aminopeptidase activity (Lactobacillus casei; [17]): 0 nmol
- Aminopeptidase activity (Lactobacillus casei; [18]): 1 nmol
- Aminopeptidase activity (S. salivarius; [19]): 0 nmol
- Aminopeptidase activity (S. salivarius; [20]): 0 nmol
- Aminopeptidase activity (Veillonella alcalesens; [21]): 0 nmol

Compound: N=C(N)NCCC[C@H](NC(=O)[C@@H](N)CCCNC(=N)N)C(=O)O [Arg-Arg, Arginyl-arginine] (H-Arg-Arg-OH)
- Aminopeptidase activity (C. ochracea): 71
- Aminopeptidase activity [2]: 65
- Aminopeptidase activity (Capnocytophaga sp.): 0
- Aminopeptidase activity (B. corporis; [4]): 4 nmol
- Aminopeptidase activity (B. denticola; [5]): 16 nmol
- Aminopeptidase activity (B. intermedius; [6]): 15 nmol
- Aminopeptidase activity (B. melaninogenicus; [7]): 24 nmol
- Aminopeptidase activity (C. sputigena; [8]): 18 nmol
- Aminopeptidase activity ("Anaerobic vibrio"): 0
- Aminopeptidase activity (A. seminis): 0
- Aminopeptidase activity (A. viscosus): 0
- Aminopeptidase activity (Actinomyces israeli): 0
- Aminopeptidase activity (Campylobacter sputorum): 1
- Aminopeptidase activity (Eikenella corrodens): 0
- Aminopeptidase activity (Fusobacterium nucleatum): 1
- Aminopeptidase activity (Fusobacterium nucleatum; [3]): 2 nmol
- Aminopeptidase activity (S. mutans): 1
- Aminopeptidase activity (V. parvula): 0
- Aminopeptidase activity (Veillonella sp.): 0
- Aminopeptidase activity (A. equuli; [9]): 0 nmol
- Aminopeptidase activity (A. suis; [10]): 0 nmol
- Aminopeptidase activity (F. periodonticum; [11]): 1 nmol
- Aminopeptidase activity (Haemophilus aphrophilus; [12]): 1 nmol
- Aminopeptidase activity (Haemophilus aphrophilus; [13]): 1 nmol
- Aminopeptidase activity (Haemophilus aphrophilus; [14]): 0 nmol
- Aminopeptidase activity (L. fermentum; [15]): 0 nmol
- Aminopeptidase activity (Lactobacillus casei; [16]): 1 nmol
- Aminopeptidase activity (Lactobacillus casei; [17]): 1 nmol
- Aminopeptidase activity (Lactobacillus casei; [18]): 0 nmol
- Aminopeptidase activity (S. salivarius; [19]): 24 nmol
- Aminopeptidase activity (S. salivarius; [20]): 15 nmol
- Aminopeptidase activity (Veillonella alcalesens; [21]): 0 nmol

Compound: [Cu] [copper]
- Sensitivity of B. gingivalis enzyme activity to heavy metal ions [1]: sensitive
- Inhibition of B. gingivalis enzyme activity by metals [1]: inhibited

Compound: CC(=O)N[C@@H](CC(C)C)C(=O)N[C@@H](CC(C)C)C(=O)N[C@H](C=O)CCCNC(=N)N [leupeptin]
- Inhibition of B. gingivalis N-CBz-glycyl-glycyl-arginylpeptidase enzyme activity [1]: inhibited

Compound: [Cd] [cadmium]
- Sensitivity of B. gingivalis enzyme activity to heavy metal ions [1]: sensitive
- Inhibition of B. gingivalis enzyme activity by metals [1]: inhibited

Compound: O=C(O)c1cc[c]([Hg][Cl])cc1 [p-chloromercuribenzoic acid]
- Inhibition of B. gingivalis N-CBz-glycyl-glycyl-arginylpeptidase enzyme activity [1]: inhibited

Compound: C[S+](C)[O-] [DMSO, dimethyl-sulfoxide]
- Inhibition of B. gingivalis N-CBz-glycyl-glycyl-arginylpeptidase enzyme activity [1]: inhibited

Compound: [Zn] [zinc]
- Inhibition of B. gingivalis enzyme activity by metals [1]: inhibited

Compound: C[C@H](NC(=O)[C@@H](N)CCCCN)C(=O)O [Lys-Ala, Lysyl-alanine] (H-Lys-Ala-OH)
- Aminopeptidase activity (B. levii): 45 and 48
- Aminopeptidase activity (Bacteroides gingivalis): 78 and 77 and 50 and 63 and 46 and 43
- Aminopeptidase activity (C. ochracea): 50
- Aminopeptidase activity [2]: 54
- Aminopeptidase activity (Capnocytophaga sp.): 14
- Aminopeptidase activity (B. corporis): 68
- Aminopeptidase activity (B. denticola): 89
- Aminopeptidase activity (B. intermedius): 50
- Aminopeptidase activity (B. melaninogenicus): 78
- Aminopeptidase activity (C. sputigena): 36
- Aminopeptidase activity ("Anaerobic vibrio"): 0
- Aminopeptidase activity (A. seminis): 0
- Aminopeptidase activity (A. viscosus): 0
- Aminopeptidase activity (Actinomyces israeli): 0
- Aminopeptidase activity (Campylobacter sputorum): 0
- Aminopeptidase activity (Eikenella corrodens): 0
- Aminopeptidase activity (Fusobacterium nucleatum; [3]): 0 nmol
- Aminopeptidase activity (S. mutans): 2
- Aminopeptidase activity (V. parvula): 0
- Aminopeptidase activity (Veillonella sp.): 0
- Aminopeptidase activity (A. equuli): 0
- Aminopeptidase activity (A. suis): 0
- Aminopeptidase activity (F. periodonticum): 0
- Aminopeptidase activity (Haemophilus aphrophilus): 0
- Aminopeptidase activity (L. fermentum): 2
- Aminopeptidase activity (Lactobacillus casei): 0
- Aminopeptidase activity (Veillonella alcalesens): 0
